In US9801381B2, “Form of rimsulfuron, a process for its preparation and use of the same” (ROTAM AGROCHEM INTERNATIONAL COMPANY LIMITED, priority 2015, dated 2017):
Where two headings read alike, the source gives them in different places.

Key:
[1] = Cleanout test (rimsulfuron residue in polyethylene bottles after rinsing, extracted with acetonitrile); assay type: physicochemical; conditions: for Cleanout rating, % (concentration of rimsulfuron herbicide in the acetonitrile solution): dispersed in tap water, stood overnight, lower rating = more effective cleanout
Protocol: The cleanout test was conducted by dispersing in water a sample to produce a concentration that is normally used when applying the herbicide: 25% rimsulfuron. The sample was added to tap water (300 mL) in a 400 mL beaker and magnetically stirred for 2 minutes. The mixture was then stirred for 2 minutes, whereupon the resulting dispersion was dispensed in three 100 mL aliquots to 4-oz (118 mL) polyethylene bottles. The bottles were capped, inverted twice and allowed to stand overnight.
After standing overnight, each individual bottle was inverted twice and the liquid contents were then poured out. Tap water (10 mL) was added and the bottle was inverted until all sediment was re-suspended, whereupon the contents were poured out. Tap water (100 mL) was added and the bottle was inverted twice and then allowed to stand undisturbed for 10 minutes. The bottle was inverted twice more and the contents were poured out. Acetonitrile (10 mL) was added to the bottle to extract any remaining material. The acetonitrile solution was analyzed by reversed-phase liquid chromatography with UV detection. The cleanout rating (the concentration of rimsulfuron herbicide in the acetonitrile solution) is reported in % in Table 6 below.

[2] = assay type: physicochemical; conditions: pH 7 buffer, test temperature e.g. 20° C.
[3] = assay type: physicochemical
Protocol: A stock pH 7 buffer solution was prepared by adding aqueous sodium hydroxide solution (0.1 M, 145 mL) to aqueous potassium dihydrogen phosphate solution (0.1 M, 250 mL), and then adding sufficient distilled water to adjust the final volume to 500 mL. At least 1 time and up to about 5 times the amount of rimsulfruon needed for saturation was added to a mixing vessel containing stock buffer solution at the test temperature (e.g., 20° C.). The mixture was magnetically stirred in the dark while being maintained at the test temperature. Samples were periodically removed for analysis. The samples were centrifuged using a high speed, temperature-controlled centrifuge at the test temperature for about 20 minutes at ≧12000 G to remove suspended particles. An aliquot of each supernatant was taken for analysis. The concentration of rimsulfuron in the supernatant was determined by a high pressure liquid chromatography (HPLC) with a reversed phase chromatography column and UV detection. The method should include development of best-fit calibration curves based on at least three standards using linear regression analysis Samples were successively withdrawn from the mixing vessel and analyzed until three successive samples show little or no variation in concentration. The test is preferably replicated to ensure accuracy.

[4] = OD formulation, original concentration 40%
[5] = SG formulation, original concentration 25%
[6] = WG formulation, original concentration 25%

| Structure (SMILES) | Cleanout rating, % (concentration of rimsulfuron herbicide in the acetonitrile solution) ([1]; OD formulation) | Cleanout rating, % (concentration of rimsulfuron herbicide in the acetonitrile solution) ([1]; SG formulation) | Cleanout rating, % (concentration of rimsulfuron herbicide in the acetonitrile solution) ([1]; WG formulation) | Concentration measured by HPLC after treatment, % [2, 4] | Concentration measured by HPLC after treatment, % [2, 5] | Concentration measured by HPLC after treatment, % [2, 6] | Solubility compared with amorphous rimsulfuron (in words) [3] | Cleanout properties compared with the known amorphous rimsulfuron product (in words) ([1]; summary of Table 6) |
| --- | --- | --- | --- | --- | --- | --- | --- | --- |
| CCS(=O)(=O)c1cccnc1S(=O)(=O)NC(=O)Nc1nc(OC)cc(OC)n1 [Amorphous Rimsulfuron, prepared in Example 1] [1-(4,6-dimethoxypyrimidin-2-yl)-3-(3-ethylsulfonyl-2-pyridylsulfonyl)urea, reference compound] | 26% | 10% | 13% | 14% | 15% | 12% |  |  |
| CCS(=O)(=O)c1cccnc1S(=O)(=O)NC(=O)Nc1nc(OC)cc(OC)n1 [Rimsulfuron, crystal form A, 98%, prepared in Example 2] [1-(4,6-dimethoxypyrimidin-2-yl)-3-(3-ethylsulfonyl-2-pyridylsulfonyl)urea] | 5% | 0.1% | 2% | 35% | 24.9% | 23% | significant increase in its solubility | markedly superior cleanout properties |
